The text below walks through data of US11820766B2, “Monoacylglycerol lipase modulators” (Janssen Pharmaceutica NV, priority 2018, dated 2023).

One may read the IC50 as the concentration needed to halve the response being measured. Low values mean higher potency, high ones lower potency.

The first experiment deals with T1, human MGL from HeLa cells (Homo sapiens, UniProt Q99685).
T1 construct: combining endogenously expressed MGL from HeLa cells with test compounds; endogenous in cells; host or cells: HeLa cells / cell homogenates
T1 sequence (Q99685 1-303): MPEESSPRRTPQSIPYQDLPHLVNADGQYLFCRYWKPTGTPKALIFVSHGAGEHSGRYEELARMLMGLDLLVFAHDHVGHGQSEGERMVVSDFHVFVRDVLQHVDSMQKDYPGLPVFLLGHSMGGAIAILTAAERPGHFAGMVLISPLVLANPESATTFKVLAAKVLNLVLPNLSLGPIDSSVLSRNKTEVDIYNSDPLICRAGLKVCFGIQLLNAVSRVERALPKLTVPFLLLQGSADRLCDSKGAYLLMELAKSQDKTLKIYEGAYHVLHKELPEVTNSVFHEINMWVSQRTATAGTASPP
Description: In vitro MGL activity assay: [glycerol-1,3-3H]-oleyl glycerol cleavage by MGL from HeLa cells. Format: biochemical. The settings on record: 300 nM [Glycerol-1,3-3H]-oleyl glycerol, one hour. An excerpt:
MGL is the predominant hydrolase in HeLa cells/cell homogenates.
Compound `C[C@H]1c2nn(C)c(-c3cc(F)c(F)c(F)c3)c2CCN1C(=O)c1n[nH]c2cccc(F)c12` [Example 362, [(7S)-2,7-Dimethyl-3-(3,4,5-trifluorophenyl)-5,7-dihydro-4H-pyrazolo[3,4-c]pyridin-6-yl]-(4-fluoro-1H-indazol-3-yl)methanone] registered an IC50 of 0.00274 µM.
The same measure, in the same setting: as for `Cc1nccn2nc(C3CC3)c(C(=O)N3CCc4c(nn(C)c4-c4cc(F)c(F)c(F)c4)[C@@H]3C)c12` [Example 447, (2-Cyclopropyl-4-methyl-pyrazolo[1,5-a]pyrazin-3-yl)-[(7S)-2,7-dimethyl-3-(3,4,5-trifluorophenyl)-5,7-dihydro-4H-pyrazolo[3,4-c]pyridin-6-yl]methanone], the figure is 0.392 µM; as for `C[C@H]1c2nn(C)c(-c3cc(F)c(F)c(F)c3)c2CCN1C(=O)c1nccn2cccc12` [Example 415, [(7S)-2,7-Dimethyl-3-(3,4,5-trifluorophenyl)-5,7-dihydro-4H-pyrazolo[3,4-c]pyridin-6-yl]-pyrrolo[1,2-a] pyrazin-1-yl-methanone], 0.0133 µM; as for `C[C@H]1c2nn(C)c(-c3cc(F)c(F)c(F)c3)c2CCN1C(=O)c1c[nH]c2ccc(F)cc12` [Example 355, [(7S)-2,7-Dimethyl-3-(3,4,5-trifluorophenyl)-5,7-dihydro-4H-pyrazolo[3,4-c]pyridin-6-yl]-(5-fluoro-1H-indol-3-yl)methanone], 0.0228 µM.
On the same count and under the same terms, as for `COc1cccn2ncc(C(=O)N3CCc4c(nn(C)c4-c4cc(F)c(F)c(F)c4)[C@@H]3C)c12` [Example 390, [(7S)-2,7-Dimethyl-3-(3,4,5-trifluorophenyl)-5,7-dihydro-4H-pyrazolo[3,4-c]pyridin-6-yl]-(4-methoxypyrazolo[1,5-a]pyridin-3-yl)methanone], the figure is 0.0126 µM.
Still for that read-out and setting: as for `COc1cc(F)cc(-c2c3c(nn2C)[C@H](C)N(C(=O)c2ccc4c(c2)OCCC4)CC3)c1` [Example 611, Chroman-7-yl-[(7S)-3-(3-fluoro-5-methoxy-phenyl)-2,7-dimethyl-5,7-dihydro-4H-pyrazolo[3,4-c]pyridin-6-yl]methanone], the figure is 0.0256 µM.
For the compound `Cc1cnc2c(C(=O)N3CCc4c(nn(C)c4-c4cc(F)c(F)c(F)c4)[C@@H]3C)cnn2c1` [Example 451, [(7S)-2,7-Dimethyl-3-(3,4,5-trifluorophenyl)-5,7-dihydro-4H-pyrazolo[3,4-c]pyridin-6-yl]-(6-methylpyrazolo[1,5-a]pyrimidin-3-yl)methanone], 0.199 µM corresponded to half-maximal inhibition (IC50).
Still for that read-out and setting: next, `Cc1nc2cc(F)ccn2c1C(=O)N1CCc2c(nn(C)c2-c2cc(F)c(F)c(F)c2)[C@@H]1C` [Example 402, [(7S)-2,7-Dimethyl-3-(3,4,5-trifluorophenyl)-5,7-dihydro-4H-pyrazolo[3,4-c]pyridin-6-yl]-(7-fluoro-2-methyl-imidazo[1,2-a]pyridin-3-yl)methanone]: 0.0216 µM; `C[C@H]1c2nn(C)c(-c3ccc(OC(F)F)nc3)c2CCN1C(=O)c1ccc2ncccc2c1` [Example 527, [(7S)-3-[6-(Difluoromethoxy)-3-pyridyl]-2,7-dimethyl-5,7-dihydro-4H-pyrazolo[3,4-c]pyridin-6-yl]-(6-quinolyl)methanone]: 0.278 µM.
For `C[C@H]1c2nn(C)c(-c3cc(F)c(F)c(F)c3)c2CCN1C(=O)c1ccc2c(n1)COCC2` [Example 566, 6,8-Dihydro-5H-pyrano[3,4-b]pyridin-2-yl-[(7S)-2,7-dimethyl-3-(3,4,5-trifluorophenyl)-5,7-dihydro-4H-pyrazolo[3,4-c]pyridin-6-yl]methanone], half-maximal inhibition (IC50) was put at 0.533 µM.

Still in this experiment, the particulars now being: 300 nM [Glycerol-1,3-3H]-oleyl glycerol, one hour incubation.
As for `COc1ccc(C(=O)N2CCc3c(nn(C)c3-c3cc(F)c(F)c(F)c3)[C@@H]2C)cc1` [Example 261, [(7S)-2,7-Dimethyl-3-(3,4,5-trifluorophenyl)-5,7-dihydro-4H-pyrazolo[3,4-c]pyridin-6-yl]-(4-methoxyphenyl)methanone], half-maximal inhibition (IC50) was put at 0.0294 µM.
Same read-out and setting: as for `COc1cc(C(=O)N2CCc3c(nn(C)c3-c3cc(F)c(F)c(F)c3)[C@@H]2C)nn1C` [Example 200, (S)-(2,7-Dimethyl-3-(3,4,5-trifluorophenyl)-2,4,5,7-tetrahydro-6H-pyrazolo[3,4-c]pyridin-6-yl)(5-methoxy-1-methyl-1H-pyrazol-3-yl)methanone], the figure is 0.295 µM; as for `Cn1nc2c(c1-c1ccccc1)CCN(C(=O)c1ccc3c(c1)OCO3)C2` [Example 29, Benzo[d][1,3]dioxol-5-yl(2-methyl-3-phenyl-2,4,5,7-tetrahydro-6H-pyrazolo[3,4-c]pyridin-6-yl)methanone], 1.95 µM; as for `Cn1nc2c(c1-c1ccccc1)CCN(C(=O)c1ccc3cncn3c1)C2` [Example 77, Imidazo[1,5-a]pyridin-6-yl(2-methyl-3-phenyl-2,4,5,7-tetrahydro-6H-pyrazolo[3,4-c]pyridin-6-yl)methanone], 5.16 µM.
Compound `Cc1ccc(-c2c3c(nn2C)CN(C(=O)c2noc4ccccc24)CC3)s1` [Example 102, Benzo[d]isoxazol-3-yl(2-methyl-3-(5-methylthiophen-2-yl)-2,4,5,7-tetrahydro-6H-pyrazolo[3,4-c]pyridin-6-yl)methanone] came in with an IC50 of 0.158 µM.
Still for that read-out and setting: as for `CC1c2nn(C)c(-c3cn(C)c4ccccc34)c2CCN1C(=O)c1ccc2ncccc2c1` (stereo not shown) [Example 251, (2,7-Dimethyl-3-(1-methyl-1H-indol-3-yl)-2,4,5,7-tetrahydro-6H-pyrazolo[3,4-c]pyridin-6-yl)(quinolin-6-yl)methanone], the figure is 1.89 µM.
Still for that read-out and setting: as for `C[C@H]1c2nn(C)c(-c3cccc(Cl)c3)c2CCN1C(=O)c1ccc2nccnc2c1` (single isomer, unassigned) [Example 134], the figure is 0.00427 µM.
On the same count and under the same terms, as for `[2H]C([2H])([2H])n1nc2c(c1-c1cc(F)cc(F)c1)CCN(C(=O)c1ccc3ncccc3c1)C2C` (stereo not shown) [Example 157, (3-(3,5-Difluorophenyl)-7-methyl-2-(methyl-d3)-2,4,5,7-tetrahydro-6H-pyrazolo[3,4-c]pyridin-6-yl)(quinolin-6-yl)methanone], the figure is 0.0138 µM.
Compound `C[C@H]1c2nn(C)c(-c3cc(F)c(F)c(F)c3)c2CCN1C(=O)c1cnn(C)c1C(F)F` [Example 330, [5-(Difluoromethyl)-1-methyl-pyrazol-4-yl]-[(7S)-2,7-dimethyl-3-(3,4,5-trifluorophenyl)-5,7-dihydro-4H-pyrazolo[3,4-c]pyridin-6-yl]methanone] returned an IC50 of 0.102 µM.
Still for that read-out and setting: as for `C[C@H]1c2nn(C)c(-c3cc(F)c(F)c(F)c3)c2CCN1C(=O)c1cccc(-n2cc(F)cn2)c1` [Example 275, [(7S)-2,7-Dimethyl-3-(3,4,5-trifluorophenyl)-5,7-dihydro-4H-pyrazolo[3,4-c]pyridin-6-yl]-[3-(4-fluoropyrazol-1-yl)phenyl]methanone], the figure is 0.0673 µM; as for `Cn1nc2c(c1-c1ccccc1)CCN(C(=O)c1cccc(OC(F)F)n1)C2` [Example 24, (6-(Difluoromethoxy)pyridin-2-yl)(2-methyl-3-phenyl-2,4,5,7-tetrahydro-6H-pyrazolo[3,4-c]pyridin-6-yl)methanone], 2.56 µM.
`Cc1ccc(-n2nccn2)c(C(=O)N2CCc3c(nn(C)c3-c3cc(F)c(F)c(F)c3)[C@@H]2C)c1` [Example 197, (S)-(2,7-Dimethyl-3-(3,4,5-trifluorophenyl)-2,4,5,7-tetrahydro-6H-pyrazolo[3,4-c]pyridin-6-yl)(5-methyl-2-(2H-1,2,3-triazol-2-yl)phenyl)methanone] came in with an IC50 of 0.06 µM.
Still for that read-out and setting: next, `COc1ccc(-n2nccn2)c(C(=O)N2CCc3c(nn(C)c3-c3cc(F)c(F)c(F)c3)[C@@H]2C)c1` [Example 289, [(7S)-2,7-Dimethyl-3-(3,4,5-trifluorophenyl)-5,7-dihydro-4H-pyrazolo[3,4-c]pyridin-6-yl]-[5-methoxy-2-(triazol-2-yl)phenyl]methanone]: 0.0198 µM; `C[C@H]1c2nn(C)c(-c3cc(F)cc(F)c3)c2CCN1C(=O)c1cc(OCCF)ccc1F` [Example 142, (S)-(3-(3,5-Difluorophenyl)-2,7-dimethyl-2,4,5,7-tetrahydro-6H-pyrazolo[3,4-c]pyridin-6-yl)(2-fluoro-5-(2-fluoroethoxy)phenyl)methanone]: 0.0037 µM; `Cn1nc2c(c1-c1ccccc1)CCN(C(=O)c1ccnc3c(F)cccc13)C2` [Example 96, (8-Fluoroquinolin-4-yl)(2-methyl-3-phenyl-2,4,5,7-tetrahydro-6H-pyrazolo[3,4-c]pyridin-6-yl)methanone]: 0.258 µM.
The same measure, in the same setting: next, `COc1cccc(C(=O)N2CCc3c(nn(C)c3-c3cc(F)c(F)c(F)c3)[C@@H]2C)c1` [Example 260, [(7S)-2,7-Dimethyl-3-(3,4,5-trifluorophenyl)-5,7-dihydro-4H-pyrazolo[3,4-c]pyridin-6-yl]-(3-methoxyphenyl)methanone]: 0.00725 µM; `C[C@H]1c2nn(C)c(-c3cc(F)c(F)c(F)c3)c2CCN1C(=O)c1cn(C2CC2)nc1C(F)(F)F` [Example 332, [1-Cyclopropyl-3-(trifluoromethyl)pyrazol-4-yl]-[(7S)-2,7-dimethyl-3-(3,4,5-trifluorophenyl)-5,7-dihydro-4H-pyrazolo[3,4-c]pyridin-6-yl]methanone]: 0.143 µM.
As for `C[C@H]1c2nn(C)c(-c3cc(F)c(F)c(F)c3)c2CCN1C(=O)c1cc(-c2cnn(C)c2)ccc1F` [Example 274, [(7S)-2,7-Dimethyl-3-(3,4,5-trifluorophenyl)-5,7-dihydro-4H-pyrazolo[3,4-c]pyridin-6-yl]-[2-fluoro-5-(1-methylpyrazol-4-yl)phenyl]methanone], the IC50 was determined as 0.0137 µM.
